Like-named read-outs stand apart in the source and are kept apart here.
Assays:
CEM = assay: Toxicity, dye based cell growth assay, CEM; conditions: Homo sapiens, CCRF-CEM, 120 h, read-out: IC50 (inhibited 50% of the cell growth); CEM, T cell line, 5 days
Procedure: (§1) To determine the toxicity of the compounds to various cell lines (Table 1, below), a similar dye based assay is performed in the absence of HIV. The toxicity of the compounds alone therefore was determined.

KB = assay: Toxicity, dye based cell growth assay, KB; conditions: Homo sapiens, 120 h, read-out: IC50 (inhibited 50% of the cell growth), oral carcinoma, 5 days
Procedure: as §1

HeLa = assay: Toxicity, dye based cell growth assay, HeLa; conditions: Homo sapiens, 120 h, read-out: IC50 (inhibited 50% of the cell growth), cervical cancer cell line, 5 days
Procedure: as §1

HIV IIIB = assay: Anti-HIV activity in MT-2 cells infected with HIV IIIB, MTT dye cell viability; assay type: cell-based
Procedure: To assess the ability of the compounds according to the present invention to inhibit viral infection relative to other compounds experiments were performed in the MT-2 cell line, as previously described by Larder, et al., Antimicrobial Agents & Chemotherapy, vol. 34, 436 (1990). […] Cells were infected at an initial multiplicity of infection (MOI) of 0.1 and grown for 5 days. Cell viability was assessed by the use of dye metabolized by viable cells.

MT-2 = assay: Toxicity, dye based cell growth assay in absence of HIV, MT-2; conditions: Homo sapiens, MT2, 120 h, read-out: IC50 (inhibited 50% of the cell growth); MT-2, HTLV infected T cell line, 5 days
Procedure: as §1

HIV [1] = assay: Effect of mycophenolic acid on anti-HIV activity of nucleoside analogs in cell culture; assay type: cell-based
Procedure: FIG. 2 presents table 6 and indicates the effect that mycophenolic acid has on the anti-HIV activity of the indicated nucleoside analogs. In the experiment depicted in this Figure, 1×10^5 cells/ml were incubated with or without 200 nM mycophenolic acid for 30 minutes and then added to wells containing nucleoside analogs to test for toxicity and anti-HIV activity. The date presented is representative of at least two independent trials.
In cell culture, the mechanism of activation for D4G prodrugs has been investigated with the initial model compound cyclo D4G. […] Experiments with mycophenolic acid, an inhibitor of inosine monophosphate (IMP) dehydrogenase have been used to study the guanine dependence of activation for cyclo D4G. The addition of mycophenolic acid results in an increase in cellular IMP and a decrease in GMP and all other guanine containing nucleosides and nucleotides. […]. The data which is presented is representative of at least two independent trials. Furthermore, cyclo D4G's activity could be rescued by the addition of guanine to the media (data not shown).

HEP-G2 = assay: Toxicity, dye based cell growth assay, HEP-G2; conditions: Homo sapiens, HepG2, 120 h, read-out: IC50 (inhibited 50% of the cell growth); HEP-G2, hepatoma cell line, 5 days
Procedure: as §1

HIV [2] = assay: Anti-HIV drug combination (synergy, isobologram of FEC50) in cell culture; assay type: cell-based
Procedure: Points on this line represent the compounds working independently.
In an attempt to understand how D4G prodrugs of the present invention would interact with other clinically approved compounds, experiments were performed with drug combinations. […] Points on the line represent two compounds working independently. […] See, Bridges, et al., Biochem. Pharmacol., 51, 731 (1996) and Dutschman, et al., Antimicro. Agents Chemother. 42, 1799 (1998).

[3] = tested on: mitochondrial DNA in CEM cells; assay: Mitochondrial toxicity: ratio of mitochondrial DNA to Alu repeat in CEM cells; assay type: cell-based; conditions: human, 8 days
Description: After 8 days of growth the cells were lysed and probed for the amount of mitochondrial DNA and normalized for differences in the amount of total DNA by probing for the Alu repeat. By comparing the amount of mitochondrial DNA to the amount of Alu repeat the % decrease in mitochondrial DNA in the presence of various concentrations of drug can be obtained. All experiments were done in triplicate. Techniques which are presented here have been previously described in Chen and Cheng, J. Biol. Chem., vol. 264, 11934-7 (1989).

[4] = target: T1, mitochondrial polymerase gamma (Homo sapiens, UniProt P54098); assay: Nucleotide incorporation by mitochondrial polymerase gamma into an elongating DNA strand; assay type: biochemical
T1 sequence (P54098 1-1239): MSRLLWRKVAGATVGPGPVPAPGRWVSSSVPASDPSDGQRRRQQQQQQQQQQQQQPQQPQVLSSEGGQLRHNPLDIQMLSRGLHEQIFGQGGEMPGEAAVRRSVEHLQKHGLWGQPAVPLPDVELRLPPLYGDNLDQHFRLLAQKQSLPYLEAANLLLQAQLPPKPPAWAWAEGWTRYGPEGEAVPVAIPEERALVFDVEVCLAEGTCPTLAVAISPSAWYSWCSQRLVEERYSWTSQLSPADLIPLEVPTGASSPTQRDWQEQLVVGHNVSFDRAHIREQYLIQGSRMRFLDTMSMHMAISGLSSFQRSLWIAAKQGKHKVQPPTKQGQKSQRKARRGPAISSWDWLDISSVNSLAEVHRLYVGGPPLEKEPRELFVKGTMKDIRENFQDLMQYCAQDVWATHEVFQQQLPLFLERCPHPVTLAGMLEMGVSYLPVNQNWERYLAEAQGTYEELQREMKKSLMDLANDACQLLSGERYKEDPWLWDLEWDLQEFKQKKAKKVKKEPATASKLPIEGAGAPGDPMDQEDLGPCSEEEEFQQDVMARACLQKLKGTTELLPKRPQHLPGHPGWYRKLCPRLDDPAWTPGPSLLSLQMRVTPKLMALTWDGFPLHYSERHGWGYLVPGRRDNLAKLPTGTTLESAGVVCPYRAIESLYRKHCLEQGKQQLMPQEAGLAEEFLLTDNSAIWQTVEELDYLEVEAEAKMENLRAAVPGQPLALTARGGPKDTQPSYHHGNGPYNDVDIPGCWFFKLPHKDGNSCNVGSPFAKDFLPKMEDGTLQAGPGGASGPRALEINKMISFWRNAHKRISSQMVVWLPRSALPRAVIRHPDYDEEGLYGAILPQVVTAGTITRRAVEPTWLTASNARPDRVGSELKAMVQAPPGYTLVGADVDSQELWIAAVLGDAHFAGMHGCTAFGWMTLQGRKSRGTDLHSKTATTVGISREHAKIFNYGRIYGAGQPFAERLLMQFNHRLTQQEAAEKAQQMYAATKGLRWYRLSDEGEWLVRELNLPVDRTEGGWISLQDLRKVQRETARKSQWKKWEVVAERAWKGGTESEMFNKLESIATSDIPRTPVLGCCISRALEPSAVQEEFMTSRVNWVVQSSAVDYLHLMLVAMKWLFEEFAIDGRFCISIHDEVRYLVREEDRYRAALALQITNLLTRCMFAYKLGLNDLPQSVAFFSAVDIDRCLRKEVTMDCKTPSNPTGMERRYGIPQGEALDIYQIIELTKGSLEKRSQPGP

[5] = target: T2, wild type HIV-1 reverse transcriptase (Human immunodeficiency virus type 1 group M subtype B, UniProt P04585); assay: Kinetics of nucleotide incorporation by wild type HIV-1 reverse transcriptase; assay type: biochemical; design: kpol/Kd: unit not given here
T2 construct: a mixture of 100 nM HIV-1 reverse transcriptase and 300 nM primer/template
Procedure: Continued research on the guanosine prodrug approach for making D4G a viable anti-HIV agent has yielded a number of new findings. In the present example, enzyme kinetics for the incorporation of the active metabolites of guanosine prodrugs with wild type HIV-1 reverse transcriptase was determined. In this experiment, a mixture of 100 nM HIV-1 reverse transcriptase and 300 nM primer/template in which the correct base incorporation is a guanine nucleotide was rapidly mixed with nucleotide in the presence of 50 mM Tris, 50 mM NaCl and 10 mM MgCl2 for a set amount of time and then the reaction was stopped by the addition 300 mM of EDTA.

[6] = target: T1, mitochondrial polymerase gamma; assay: Exonuclease removal from chain terminated primer template by mitochondrial polymerase gamma; assay type: biochemical
[7] = target: T1, mitochondrial polymerase gamma; conditions: cited from earlier work
[8] = target: T1, mitochondrial polymerase gamma; conditions: exonuclease; from Johnson et al.; cited from earlier work
[9] = mitochondrial polymerase gamma, incorporation
[10] = Table 4, primer/template DNA/DNA, RT WT
[11] = Table 4, primer/template DNA/RNA, RT WT
[12] = mitochondrial polymerase gamma, from Johnson et al.

Nc1nc(NC2CC2)c2ncn([C@H]3C=C[C@@H](CO)O3)c2n1 [Cd4G, 2-Amino-6-cyclopropylamino-9-(2,3-dideoxy-β-D-glycero-pent-2-enofuranosyl)purine]
IC50 (CEM): 200 ± 31 µM
IC50 (KB): > 500 µM
IC50 (HeLa): 500 ± 33 µM
EC50 (HIV IIIB; Human immunodeficiency virus 1, IIIB, MT2, 120 h, read-out: EC50 (concentration necessary to save 50% of the cells)): 8 µM
anti-HIV activity (HIV IIIB; summary of Table 1): strong anti-HIV activity
IC50 (MT-2): 100 ± 22 µM
fold less active (anti-HIV) in the presence of mycophenolic acid (HIV [1]; 200 nM mycophenolic acid, 30 minutes, 1×10^5 cells/ml): 3 fold
anti-HIV activity on addition of guanine to the media (HIV [1]; in the presence of mycophenolic acid, data not shown): rescued
IC50 (HEP-G2): > 500 µM
anti-HIV interaction in combination with 3TC (HIV [2]; FIG. 3 and FIG. 4): synergistic
anti-HIV interaction in combination with D4T (HIV [2]; FIG. 4): somewhat synergistic
anti-HIV interaction in combination with AZT (HIV [2]; FIG. 4, D4T with AZT data not shown): synergistic
mitochondrial toxicity [3]: lower mitochondrial toxicity than D4T
% Control (mtDNA/Alu) ([3]; 1 μM): 99%
Ration of mtDNA/Alu ([3]; 1 μM): 1.06 ± 0.11
% Control (mtDNA/Alu) ([3]; 10 μM): 84%
Ration of mtDNA/Alu ([3]; 10 μM): 0.90 ± 0.06
% Control (mtDNA/Alu) ([3]; 200 μM): 43%
Ration of mtDNA/Alu ([3]; 200 μM): 0.46 ± 0.06

Nc1nc2c(ncn2[C@H]2C=C[C@@H](COP(=O)(O)OP(=O)(O)OP(=O)(O)O)O2)c(=O)[nH]1 [D4GTP]
Toxicity Index ([4]; fold increase in time for mitochondrial replication, 1 = no toxicity): 320
Kd [4, 9]: 0.61 ± 0.13 µM
kpol [4, 9]: 0.27 ± 0.02 s⁻¹
kpol/Kd [4, 9]: 450000 ± 99000 M⁻¹ s⁻¹
Kd ([5]; Table 3, substrate DNA/DNA): 11 ± 2 µM
Selectivity = (kpol/Kd)dGTP/(kpol/Kd)analog ([5]; Table 3, substrate DNA/DNA): 1.5
kpol ([5]; Table 3, substrate DNA/DNA): 11 ± 1 s⁻¹
kpol/Kd ([5]; Table 3, substrate DNA/DNA): 1.1 ± 0.26
Kd ([5]; Table 3, substrate DNA/RNA): 9.5 ± 1.1 µM
Selectivity = (kpol/Kd)dGTP/(kpol/Kd)analog ([5]; Table 3, substrate DNA/RNA): 2
kpol ([5]; Table 3, substrate DNA/RNA): 13 ± 0.5 s⁻¹
kpol/Kd ([5]; Table 3, substrate DNA/RNA): 1.4 ± 0.2
Efficiency [5, 10]: 1.1 ± 0.3 s^−1μM^−1
Kd [5, 10]: 11 ± 2 µM
Selectivity = efficiency dGTP/efficiency analog [5, 10]: 2
kpol [5, 10]: 11 ± 1 s⁻¹
Efficiency [5, 11]: 1.4 ± 0.2 s^−1μM^−1
Kd [5, 11]: 9.5 ± 1.1 µM
Selectivity = efficiency dGTP/efficiency analog [5, 11]: 2
kpol [5, 11]: 13 ± 0.5 s⁻¹
kexo [6]: 0.00046 ± 0.000021 s⁻¹

Cc1cn([C@H]2C=C[C@@H](COP(=O)(O)OP(=O)(O)OP(=O)(O)O)O2)c(=O)[nH]c1=O [D4TTP]
Toxicity Index [7]: 3,120
Discrimination [7, 12]: 7.4
Kd [7, 12]: 0.045 ± 0.0075 µM
kpol [7, 12]: 0.24 ± 0.01 s⁻¹
kpol/Kd [7, 12]: 5.4e+06 ± 930000 M⁻¹ s⁻¹
kexo [8]: 0.0004 s⁻¹

Source: patent US6900315B2, “2-amino-9H-purin-9-yl compounds and methods for inhibiting/treating HIV infections and AIDS related symptoms” (Yale University, priority 2001, dated 2005)
